Measured values taken from US20240158639A1, “PROCESS FOR PREPARING INDOCYANINE GREEN” (ICROM Srl, priority 2021, published 2024).
Where two headings read alike, the source gives them in different places. One block for each compound: values may come before it.

Key:
[1] = in vivo, iv; cited from earlier work
[2] = Stability of the HPLC sample solution; type: physicochemical
Method: Sonicate for 5 minutes verifying complete solubilization.

[3] = 10° C., 30 days, in nitrogen, aluminium + polythene, MeOH
[4] = 10° C., 30 days, no nitrogen, polythene, MeOH
[5] = 20-25° C., 30 days, in nitrogen, aluminium + polythene, MeOH
[6] = 20-25° C., 30 days, no nitrogen, polythene, MeOH
[7] = t0, no nitrogen, polythene, diluent MeOH, % area 254 nm

Compound: 1H-benz[e]indole, 2-[7-[1,3-dihydro-1,1-dimethyl-3-(4-sulfobutyl)-2H-benz[e]indol-2-ylidene]-1,3,5-heptatrienyl]-1,1-dimethyl-3-(4-sulfobutyl) hydroxide, inner salt, sodium salt [compound of formula (I)]
half-life of elimination by the body [1]: 3 to 4 min
time for which the sample solution is stable ([2]; sample preparation method 1: 40 mg in 50 ml mixture phase 70:30 A:B): ≤ 30 min
time for which the sample solution is stable ([2]; sample preparation method 2: 40 mg in 50 ml methanol): ≤ 30 min

% rt 3.5 (A) [3]: nq
% rt 4.0 [3]: 0.02%
% rt 8.9 [3]: 0.04%
INNmax (unknown maximum impurity) % [3]: 0.07%
Purity [3]: 99.77%
% rt 3.5 (A) [4]: nq
% rt 4.0 [4]: 0.04%
% rt 8.9 [4]: 0.04%
INNmax (unknown maximum impurity) % [4]: 0.06%
Purity [4]: 99.84%
% rt 3.5 (A) [5]: nq
% rt 4.0 [5]: 0.03%
% rt 8.9 [5]: 0.05%
INNmax (unknown maximum impurity) % [5]: 0.08%
Purity [5]: 99.71%
% rt 3.5 (A) [6]: nq
% rt 4.0 [6]: 0.076%
% rt 8.9 [6]: 0.05%
INNmax (unknown maximum impurity) % [6]: 0.076%
Purity [6]: 99.78%
% rt 3.5 (A) [7]: nq
% rt 4.0 [7]: 0.02%
% rt 8.9 [7]: 0.03%
INNmax (unknown maximum impurity) % [7]: 0.07%
Purity [7]: 99.73%
Compound: CC1(C)C(/C=C/C=C/C=C/C=C2\N(CCCCS(=O)(=O)[O-])c3ccc4ccccc4c3C2(C)C)=[N+](CCCCS(=O)(=O)[O-])c2ccc3ccccc3c21.[Na+] [067/046]
